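Each compound was tested at five concentrations against cells in 96-well plates for 48 hours. TGI marks complete inhibition of growth.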
Columns and labels:
Experiment in all cases: NCI anticancer screen, dose series, 48 h
A549 NSCLC = system: A549 NSCLC
ACHN renal = system: ACHN renal
CCRF-CEM leukemia = system: CCRF-CEM leukemia
EKVX NSCLC = system: EKVX NSCLC
HCT-116 colon = system: HCT-116 colon
HOP-62 NSCLC = system: HOP-62 NSCLC
IGROV1 ovarian = system: IGROV1 ovarian
MDA-N = system: MDA-N
NCI/ADR-RES ovarian = system: NCI/ADR-RES ovarian
OVCAR-4 ovarian = system: OVCAR-4 ovarian
OVCAR-5 ovarian = system: OVCAR-5 ovarian
PC-3 prostate = system: PC-3 prostate
SK-MEL-28 melanoma = system: SK-MEL-28 melanoma
SNB-75 CNS = system: SNB-75 CNS
T-47D breast = system: T-47D breast
TK-10 renal = system: TK-10 renal
UACC-257 melanoma = system: UACC-257 melanoma
UACC-62 melanoma = system: UACC-62 melanoma
UO-31 renal = system: UO-31 renal
NCI-H522 lung = system: NCI-H522 lung

Compound	TGI (A549 NSCLC)	TGI (ACHN renal)	TGI (CCRF-CEM leukemia)	TGI (EKVX NSCLC)	TGI (HCT-116 colon)	TGI (HOP-62 NSCLC)	TGI (IGROV1 ovarian)	TGI (MDA-N)	TGI (NCI/ADR-RES ovarian)	TGI (OVCAR-4 ovarian)	TGI (OVCAR-5 ovarian)	TGI (PC-3 prostate)	TGI (SK-MEL-28 melanoma)	TGI (SNB-75 CNS)	TGI (T-47D breast)	TGI (TK-10 renal)	TGI (UACC-257 melanoma)	TGI (UACC-62 melanoma)	TGI (UO-31 renal)	TGI (NCI-H522 lung)
COc1ccc2nc3n(c2c1)C(c1c(F)cccc1F)SC3 (configuration not stated)	> 100 µM	> 100 µM	> 100 µM	55 µM	75.2 µM	> 100 µM	> 100 µM	> 100 µM	59.2 µM	> 100 µM	> 100 µM	> 100 µM	> 100 µM	> 100 µM	> 100 µM	> 100 µM	> 100 µM	> 100 µM	> 100 µM	–
Clc1ccc(C(Cc2ccccc2)c2c(Cl)nc(N3CCNCC3)nc2Cl)cc1 (configuration not stated)	30.4 µM	29.9 µM	27.2 µM	32.2 µM	20.5 µM	30.2 µM	24.2 µM	–	35 µM	43 µM	32 µM	28 µM	26.6 µM	27.2 µM	29.6 µM	34.3 µM	34 µM	44 µM	27.2 µM	25.9 µM
CC1(C)OC[C@H](COCOP2(=O)Oc3ccc4ccccc4c3-c3c(ccc4ccccc34)O2)O1	63.3 µM	37.3 µM	84.8 µM	–	28.3 µM	40 µM	72.2 µM	26.8 µM	36 µM	–	33.4 µM	27.6 µM	27 µM	–	36.2 µM	35.6 µM	–	46.9 µM	32.6 µM	–
CC(C)=CCC/C(C)=C/Cc1c(O)c(C)cc2c1[nH]c1cc(O)ccc12	> 25 µM	> 25 µM	> 25 µM	–	> 25 µM	> 25 µM	> 25 µM	–	–	> 25 µM	> 25 µM	–	> 25 µM	–	–	> 25 µM	–	> 25 µM	> 25 µM	> 25 µM
COc1ccc(CCc2ccc3c(c2)OCO3)cc1	> 100 µM	> 100 µM	> 100 µM	> 100 µM	> 100 µM	> 100 µM	> 100 µM	> 100 µM	> 100 µM	> 100 µM	> 100 µM	> 100 µM	> 100 µM	> 100 µM	–	> 100 µM	> 100 µM	> 100 µM	–	> 100 µM
CCOC(=O)c1csc(C(CSCc2ccc(OC)cc2)N2C(=O)c3ccccc3C2=O)n1 (configuration not stated)	> 100 µM	> 100 µM	> 100 µM	> 100 µM	> 100 µM	> 100 µM	> 100 µM	–	> 100 µM	> 100 µM	> 100 µM	> 100 µM	> 100 µM	–	> 100 µM	> 100 µM	> 100 µM	> 100 µM	> 100 µM	58.4 µM
Cc1ccc(C)n2c1nc1cc3ccccc3cc12	> 100 µM	> 100 µM	> 100 µM	> 100 µM	> 100 µM	> 100 µM	> 100 µM	> 100 µM	> 100 µM	–	> 100 µM	> 100 µM	> 100 µM	57.6 µM	> 100 µM	> 100 µM	> 100 µM	57.1 µM	94.4 µM	–
COc1ccc(/C=C2\CCC(C)c3c2nc(N)c(C#N)c3-c2ccc(OC)c(OC)c2)cc1OC (configuration not stated)	–	> 100 µM	> 100 µM	8.53 µM	> 100 µM	9.95 µM	> 100 µM	> 100 µM	> 100 µM	–	> 100 µM	> 100 µM	> 100 µM	–	6.38 µM	> 100 µM	75.5 µM	> 100 µM	> 100 µM	–
NCCCC(N=Cc1nc(-c2ccccc2)oc1O)C(=O)O (configuration not stated)	> 100 µM	> 100 µM	> 100 µM	> 100 µM	> 100 µM	> 100 µM	> 100 µM	–	–	> 100 µM	> 100 µM	–	> 100 µM	> 100 µM	–	> 100 µM	> 100 µM	> 100 µM	> 100 µM	> 100 µM
CNn1c(-c2ccc(C)cc2)n[nH]c1=O	> 100 µM	> 100 µM	> 100 µM	> 100 µM	> 100 µM	> 100 µM	> 100 µM	–	> 100 µM	> 100 µM	> 100 µM	> 100 µM	–	–	> 100 µM	> 100 µM	> 100 µM	> 100 µM	> 100 µM	> 100 µM
CC(C)(C)n1c(=O)n(-c2ccccc2)n(C(C)(C)C)c1=O	> 100 µM	> 100 µM	> 100 µM	> 100 µM	> 100 µM	> 100 µM	> 100 µM	> 100 µM	> 100 µM	> 100 µM	> 100 µM	> 100 µM	> 100 µM	> 100 µM	–	> 100 µM	> 100 µM	> 100 µM	> 100 µM	–
COc1c2cc([N+](=O)[O-])cc1CN(C(=O)C(F)(F)F)CCOCCN(C(=O)C(F)(F)F)C2	> 100 µM	> 100 µM	> 100 µM	> 100 µM	> 100 µM	> 100 µM	> 100 µM	> 100 µM	–	> 100 µM	> 100 µM	> 100 µM	> 100 µM	> 100 µM	> 100 µM	> 100 µM	> 100 µM	> 100 µM	> 100 µM	> 100 µM
COC(=O)CSc1nc2[nH]c(SC)c(C(N)=O)c2c(=O)n1-c1ccccc1	> 10 µM	–	> 10 µM	> 10 µM	–	> 10 µM	> 10 µM	> 10 µM	–	> 10 µM	–	> 10 µM	> 10 µM	> 10 µM	> 10 µM	> 10 µM	> 10 µM	> 10 µM	–	–
CC(Cc1ccccc1)N(C)Cc1nc(C2CCC([N+](=O)[O-])O2)no1 (configuration not stated)	27.4 µM	–	44.8 µM	94.4 µM	25.3 µM	19.7 µM	25.5 µM	–	82.5 µM	21.3 µM	29 µM	–	25.6 µM	23.1 µM	66.1 µM	28.4 µM	21.2 µM	22.1 µM	20.4 µM	–
CCCCCCc1cc2cc(-c3cn4c(n3)sc3ccccc34)c(=O)oc2cc1O	> 100 µM	> 100 µM	> 100 µM	> 100 µM	> 100 µM	> 100 µM	> 100 µM	–	> 100 µM	> 100 µM	> 100 µM	> 100 µM	> 100 µM	> 100 µM	> 100 µM	> 100 µM	> 100 µM	5.58 µM	> 100 µM	> 100 µM
COc1ccc(C2Oc3c(cccc3-c3c(-c4ccc(O)cc4)oc4cc(O)cc(O)c4c3=O)C(=O)C2O)cc1O (configuration not stated)	> 100 µM	> 100 µM	> 100 µM	> 100 µM	> 100 µM	> 100 µM	> 100 µM	–	> 100 µM	> 100 µM	> 100 µM	> 100 µM	> 100 µM	> 100 µM	> 100 µM	> 100 µM	> 100 µM	> 100 µM	> 100 µM	–
O=C(/C=C/c1ccccc1)c1cc(C(=O)/C=C/c2ccccc2)c(O)cc1O	> 100 µM	> 100 µM	–	> 100 µM	> 100 µM	> 100 µM	> 100 µM	> 100 µM	–	–	> 100 µM	> 100 µM	> 100 µM	–	–	> 100 µM	> 100 µM	> 100 µM	> 100 µM	–
CCCCCCCCCC(=O)NC(CCC(=O)N(CCNC(=O)c1nc(-c2ccccc2)oc1-c1ccccc1)Cc1ccccc1)C(=O)O (configuration not stated)	31.9 µM	38 µM	–	35.1 µM	32.5 µM	30.5 µM	39.8 µM	36.4 µM	33.3 µM	75.2 µM	31.7 µM	–	37.9 µM	29.6 µM	47.7 µM	53.6 µM	54.7 µM	–	28.5 µM	34.3 µM
CC1=NN(C(=O)CC(=O)NC(=O)/C=C\c2ccccc2)C(=O)C1N=Nc1ccc([N+](=O)[O-])cc1 (configuration not stated)	> 100 µM	> 100 µM	> 100 µM	> 100 µM	> 100 µM	> 100 µM	> 100 µM	> 100 µM	> 100 µM	–	> 100 µM	> 100 µM	> 100 µM	> 100 µM	> 100 µM	> 100 µM	–	> 100 µM	> 100 µM	–
O=C(OCc1ccccc1)c1ccc(NCc2cc(O)ccc2O)cc1	20.5 µM	2.77 µM	2.8 µM	3.48 µM	3.02 µM	20.1 µM	2.49 µM	4.6 µM	4.18 µM	2.99 µM	13.9 µM	2.73 µM	3 µM	3.39 µM	–	3.87 µM	3.4 µM	3.15 µM	2.61 µM	0.883 µM
O=C(Cn1c2c(c3ccccc31)CCCC2)N1CCCCC1	> 100 µM	> 100 µM	–	> 100 µM	> 100 µM	> 100 µM	> 100 µM	> 100 µM	> 100 µM	> 100 µM	> 100 µM	> 100 µM	> 100 µM	–	–	> 100 µM	> 100 µM	> 100 µM	> 100 µM	–
CC(C)(C)C1=CC(=C2C=Cc3cc(O)ccc3O2)C=C(C(C)(C)C)C1=O	3.04 µM	3.06 µM	3.45 µM	3.5 µM	2.43 µM	4.02 µM	3.04 µM	–	4.9 µM	3.04 µM	3.94 µM	3.01 µM	3.64 µM	3.3 µM	2.16 µM	3.09 µM	3.07 µM	2.76 µM	2.5 µM	2.99 µM
O=C(Cn1c(C(=O)/C=C/c2ccc(Cl)cc2)nc2ccccc21)c1ccc(Cl)cc1	71.5 µM	72.5 µM	8.45 µM	64.5 µM	26.2 µM	41.6 µM	71.7 µM	61 µM	63 µM	50.7 µM	64.1 µM	> 100 µM	62.6 µM	–	> 100 µM	98.5 µM	68.2 µM	33.7 µM	43 µM	–
COc1ccc(C[C@@H](C(=O)O[C@H](C)[C@H](NC(=O)[C@@H](CC(C)C)N(C)C(=O)C2CCCN2C(=O)[C@H](C)O)C(=O)N2CCCCNC(=O)[C@@H](C)C(=O)[C@H](C(C)C)OC(=O)C[C@H](O)[C@H]2CC(C)C)N(C)C(C)=O)cc1 (some centres not stated)	> 50 µM	> 50 µM	26.1 µM	37.1 µM	> 50 µM	> 50 µM	> 50 µM	–	> 50 µM	> 50 µM	> 50 µM	> 50 µM	22.6 µM	> 50 µM	> 50 µM	> 50 µM	> 50 µM	22 µM	> 50 µM	> 50 µM
CCOC(=O)C1=C(O)C(=O)c2ccoc2C1=O	> 100 µM	> 100 µM	> 100 µM	> 100 µM	> 100 µM	> 100 µM	> 100 µM	–	–	> 100 µM	> 100 µM	–	> 100 µM	> 100 µM	–	> 100 µM	> 100 µM	> 100 µM	> 100 µM	> 100 µM
O=c1[nH]nc(-c2ccccc2)n1-c1cccc([N+](=O)[O-])c1	> 100 µM	> 100 µM	> 100 µM	> 100 µM	> 100 µM	> 100 µM	> 100 µM	> 100 µM	> 100 µM	> 100 µM	> 100 µM	–	> 100 µM	> 100 µM	> 100 µM	> 100 µM	> 100 µM	> 100 µM	> 100 µM	> 100 µM

Source: PubChem BioAssay (NCI)
